Measurements published in patent publication US20190322676A1, “CERAMIDE GALACTOSYLTRANSFERASE INHIBITORS FOR THE TREATMENT OF DISEASE” (BioMarin Pharmaceutical Inc., priority 2016, published 2019).
Structures can show the parent of a compound that is named as a salt.

Target: T1, human CGT (ceramide galactosyltransferase), CHO/CGT lysate (Homo sapiens, UniProt Q16880)
T1 construct: Full-length human CGT cDNA was cloned into the BamH1/Xho1 site of pcDNA3.1 (+); expressed in transfected cells; host or cells: Chinese hamster ovary (CHO) cells; lysate prepared with M-PER
T1 sequence (Q16880 21-541): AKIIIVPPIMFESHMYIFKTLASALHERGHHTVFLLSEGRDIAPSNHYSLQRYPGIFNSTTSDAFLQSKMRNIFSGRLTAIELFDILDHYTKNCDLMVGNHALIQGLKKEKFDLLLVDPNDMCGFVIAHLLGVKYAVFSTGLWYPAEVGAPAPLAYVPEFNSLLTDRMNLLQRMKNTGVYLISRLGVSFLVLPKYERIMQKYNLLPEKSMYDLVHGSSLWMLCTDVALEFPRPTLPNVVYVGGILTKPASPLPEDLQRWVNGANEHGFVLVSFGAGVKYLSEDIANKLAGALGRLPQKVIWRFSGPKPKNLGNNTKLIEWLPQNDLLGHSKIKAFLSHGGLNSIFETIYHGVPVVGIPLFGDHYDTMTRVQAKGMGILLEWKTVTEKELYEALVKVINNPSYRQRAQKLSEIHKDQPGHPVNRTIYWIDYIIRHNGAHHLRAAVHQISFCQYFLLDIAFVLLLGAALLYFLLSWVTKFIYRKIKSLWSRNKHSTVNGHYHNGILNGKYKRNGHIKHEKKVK
Test: CGT enzyme assay, RapidFire/MS/MS readout (Table 1 ranges with one asterisk *)
Type: biochemical
Settings: RapidFire method (range with one asterisk *)
Outline: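 IC50s come from variable-slope dose-response fits of internal-standard-normalized C6-NBD-dihydro-galactosylceramide, measured by RapidFire/MS/MS (ESI negative). Reactions: 1 h, 37 °C, human CGT-expressing CHO lysate (4 μg), 0.001–50 μM compound, 10 μM NBD-dihydro-ceramide, 17.5 μM UDP-galactose, 0.5% DMSO, pH 7.2; 0.01% Tween 80 added for ** values.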

| SMILES | IC50 [µM] |
| --- | --- |
| NC1CC2CCC(C1)N2C(=O)[C@H](NS(=O)(=O)c1ccc2cc(OC3CCCC3)ccc2c1)C(F)(F)c1ccc(-c2ccc(C(F)(F)F)cc2)cc1 (stereo partly drawn) [Compound 55-2, N-((2S)-3-(3-amino-8-azabicyclo[3.2.1]octan-8-yl)-1,1-difluoro-3-oxo-1-(4′-(trifluoromethyl)-[1,1′-biphenyl]-4-yl)propan-2-yl)-6-(cyclopentyloxy)naphthalene-2-sulfonamide trifluoroacetate] | 1 to 10 |
| NC1CC2CCC(C1)N2C(=O)[C@@H](NS(=O)(=O)c1ccc2cc(OC3CCCC3)ccc2c1)C(F)(F)c1ccc(-c2ccc(F)cc2)cc1 (stereo partly drawn) [Compound 56-1, N-((2R)-3-(3-amino-8-azabicyclo[3.2.1]octan-8-yl)-1,1-difluoro-1-(4′-fluoro-[1,1′-biphenyl]-4-yl)-3-oxopropan-2-yl)-6-(cyclopentyloxy)naphthalene-2-sulfonamide trifluoroacetate] | < 1 |
| NC1CC2CCC(C1)N2C(=O)[C@H](NS(=O)(=O)c1ccc2cc(OC3CCCC3)ccc2c1)C(F)(F)c1ccc(-c2ccc(F)cc2)cc1 (stereo partly drawn) [Compound 56-2, N-((2S)-3-(3-amino-8-azabicyclo[3.2.1]octan-8-yl)-1,1-difluoro-1-(4′-fluoro-[1,1′-biphenyl]-4-yl)-3-oxopropan-2-yl)-6-(cyclopentyloxy)naphthalene-2-sulfonamide trifluoroacetate] | 1 to 10 |
| NCC1CCN(C(=O)[C@@H](NS(=O)(=O)c2ccc3cc(OC4CCCC4)ccc3c2)C(F)(F)c2ccc(Br)cc2)CC1 [Compound 57-1, (R)—N-(3-(4-(aminomethyl)piperidin-1-yl)-1-(4-bromophenyl)-1,1-difluoro-3-oxopropan-2-yl)-6-(cyclopentyloxy)naphthalene-2-sulfonamide trifluoroacetate] | < 1 |
| NCC1CCN(C(=O)[C@H](NS(=O)(=O)c2ccc3cc(OC4CCCC4)ccc3c2)C(F)(F)c2ccc(Br)cc2)CC1 [Compound 57-2, (S)—N-(3-(4-(aminomethyl)piperidin-1-yl)-1-(4-bromophenyl)-1,1-difluoro-3-oxopropan-2-yl)-6-(cyclopentyloxy)naphthalene-2-sulfonamide trifluoroacetate] | 10 to 30 |
| CCCCOc1ccc(C(F)(F)[C@@H](C(=O)N2CCC(N)CC2)N(C)S(=O)(=O)c2ccc(OCC3CCCCC3)cc2)cc1 [Compound 58-1, (R)—N-(3-(4-aminopiperidin-1-yl)-1-(4-butoxyphenyl)-1,1-difluoro-3-oxopropan-2-yl)-4-(cyclohexylmethoxy)-N-methylbenzenesulfonamide] | 1 to 10 |
| CCCCOc1ccc(C(F)(F)[C@H](C(=O)N2CCC(N)CC2)N(C)S(=O)(=O)c2ccc(OCC3CCCCC3)cc2)cc1 [Compound 58-2, (S)—N-(3-(4-aminopiperidin-1-yl)-1-(4-butoxyphenyl)-1,1-difluoro-3-oxopropan-2-yl)-4-(cyclohexylmethoxy)-N-methylbenzenesulfonamide] | 10 to 30 |
| NC1CC2CCC(C1)N2C(=O)[C@@H](NS(=O)(=O)c1ccc(OCC2CCCCC2)cc1)C(F)(F)c1ccc(C(F)(F)F)cc1 (stereo partly drawn) [Compound 59-1, N-((2R)-3-(3-amino-8-azabicyclo[3.2.1]octan-8-yl)-1,1-difluoro-3-oxo-1-(4-(trifluoromethyl)phenyl)propan-2-yl)-4-(cyclohexylmethoxy)benzenesulfonamide] | < 1 |
| NC1CC2CCC(C1)N2C(=O)[C@H](NS(=O)(=O)c1ccc(OCC2CCCCC2)cc1)C(F)(F)c1ccc(C(F)(F)F)cc1 (stereo partly drawn) [Compound 59-2, N-((2S)-3-(3-amino-8-azabicyclo[3.2.1]octan-8-yl)-1,1-difluoro-3-oxo-1-(4-(trifluoromethyl)phenyl)propan-2-yl)-4-(cyclohexylmethoxy) benzenesulfonamide] | 1 to 10 |
| NC1CC2CCC(C1)N2C(=O)[C@@H](NS(=O)(=O)c1ccc(OCC2CCCC2)cc1)C(F)(F)c1ccc(C(F)(F)F)cc1 (stereo partly drawn) [Compound 60-1, N-((2R)-3-(3-amino-8-azabicyclo[3.2.1]octan-8-yl)-1,1-difluoro-3-oxo-1-(4-(trifluoromethyl)phenyl)propan-2-yl)-4-(cyclopentylmethoxy) benzenesulfonamide] | 1 to 10 |
| NC1CC2CCC(C1)N2C(=O)[C@H](NS(=O)(=O)c1ccc(OCC2CCCC2)cc1)C(F)(F)c1ccc(C(F)(F)F)cc1 (stereo partly drawn) [Compound 60-2, N-((2S)-3-(3-amino-8-azabicyclo[3.2.1]octan-8-yl)-1,1-difluoro-3-oxo-1-(4-(trifluoromethyl)phenyl)propan-2-yl)-4-(cyclopentylmethoxy)benzenesulfonamide] | 10 to 30 |
| NC1CCN(C(=O)[C@@H](NS(=O)(=O)c2ccc3cc(OC4CCCC4)ccc3c2)C(F)(F)c2ccc(Oc3ccccc3)cc2)CC1 [Compound 61-1, (R)—N-(3-(4-aminopiperidin-1-yl)-1,1-difluoro-3-oxo-1-(4-phenoxyphenyl)propan-2-yl)-6-(cyclopentyloxy)naphthalene-2-sulfonamide] | < 1 |
| NC1CCN(C(=O)[C@H](NS(=O)(=O)c2ccc3cc(OC4CCCC4)ccc3c2)C(F)(F)c2ccc(Oc3ccccc3)cc2)CC1 [Compound 61-2, (S)—N-(3-(4-aminopiperidin-1-yl)-1,1-difluoro-3-oxo-1-(4-phenoxyphenyl)propan-2-yl)-6-(cyclopentyloxy)naphthalene-2-sulfonamide] | < 1 |
| CN([C@H](C(=O)N1CCC(N)CC1)C(F)(F)c1ccc(Oc2ccccc2)cc1)S(=O)(=O)c1ccc2cc(OC3CCCC3)ccc2c1 [Compound 62-1, (R)—N-(3-(4-aminopiperidin-1-yl)-1,1-difluoro-3-oxo-1-(4-phenoxyphenyl)propan-2-yl)-6-(cyclopentyloxy)-N-methylnaphthalene-2-sulfonamide trifluoroacetate] | 1 to 10 |
| CN([C@@H](C(=O)N1CCC(N)CC1)C(F)(F)c1ccc(Oc2ccccc2)cc1)S(=O)(=O)c1ccc2cc(OC3CCCC3)ccc2c1 [Compound 62-2, (S)—N-(3-(4-aminopiperidin-1-yl)-1,1-difluoro-3-oxo-1-(4-phenoxyphenyl)propan-2-yl)-6-(cyclopentyloxy)-N-methylnaphthalene-2-sulfonamide trifluoroacetate] | 1 to 10 |
| NC1CCN(C(=O)[C@@H](NS(=O)(=O)c2ccc(OCC3CCCCC3)cc2)C(F)(F)c2ccc(Oc3ccccc3)cc2)CC1 [Compound 63-1, (R)—N-(3-(4-aminopiperidin-1-yl)-1,1-difluoro-3-oxo-1-(4-phenoxyphenyl)propan-2-yl)-4-(cyclohexylmethoxy)benzenesulfonamide trifluoroacetate] | 1 to 10 |
| NC1CCN(C(=O)[C@H](NS(=O)(=O)c2ccc(OCC3CCCCC3)cc2)C(F)(F)c2ccc(Oc3ccccc3)cc2)CC1 [Compound 63-2, (S)—N-(3-(4-aminopiperidin-1-yl)-1,1-difluoro-3-oxo-1-(4-phenoxyphenyl)propan-2-yl)-4-(cyclohexylmethoxy)benzenesulfonamide trifluoroacetate] | 10 to 30 |
| CN([C@H](C(=O)N1CCC(N)CC1)C(F)(F)c1ccc(Oc2ccccc2)cc1)S(=O)(=O)c1ccc(OCC2CCCCC2)cc1 [Compound 64-1, (R)—N-(3-(4-aminopiperidin-1-yl)-1,1-difluoro-3-oxo-1-(4-phenoxyphenyl)propan-2-yl)-4-(cyclohexylmethoxy)-N-methylbenzenesulfonamide] | 1 to 10 |
